From patent publication US9259390B2, “Parenteral and oral formulations of benzimidazoles” (priority 2003, dated 2016)
Values after ≈ are worked out from the molar mass of the structure shown. Values joined by “and” are separate entries in the source; they are usually repeats but may differ in a detail not shown here. Identical values can stand only once.

Experiments:
[1] = In vitro MZ release, USP Dissolution Apparatus 2; type: physicochemical; settings: for Cumulative MZ Released: individual determinations
Procedure: All four formulations were filled manually with a syringe into a hydrophilic airfill soft gelatin capsule (R. P. Scherer, Basking Ridge, N.J.) and the resulting hole was sealed thermally. […] C. Cremphor RH 40 was used to maintain the sink condition of the releasing medium. The release medium was constantly stirred at 50 rpm by a Teflon-coated dissolution paddle. Serial release samples were withdrawn and filtered through a 0.45 μm Millipore filter and analyzed by the HPLC assay.

SRB1 = assay: Cell growth inhibition in skin cancer cells; type: cell-based
A375 = assay: Cell growth inhibition in skin cancer cells; type: cell-based; settings: Homo sapiens, A-375
2237 = assay: Cell growth inhibition in skin cancer cells; type: cell-based
H1299 cells = assay: Cell growth inhibition in NSCLC cells; type: cell-based; settings: Homo sapiens, NCI-H1299, NSCLC cells; MZ from two microemulsion formulations
[2] = 33 days

Cumulative MZ Released, Mean ([1]; 10 min): 0.04 % Dose | Cumulative MZ Released, Mean ([1]; 20 min): 0.15 % Dose | Cumulative MZ Released, Mean ([1]; 30 min): 0.22 % Dose | Cumulative MZ Released, Mean ([1]; 40 min): 0.29 % Dose | Cumulative MZ Released, Mean ([1]; 50 min): 0.29 % Dose | Cumulative MZ Released ([1]; 60 min, listed as MZ powder): 0.27 % Dose (2×) and 0.32 % Dose | Cumulative MZ Released, Mean ([1]; 60 min, listed as MZ powder): 0.29 % Dose | Cumulative MZ Released, Mean ([1]; 60 min, listed as unformulated drug powder): 0.3 % Dose | IC50 (SRB1): 0.091 µg/mL (≈ 0.308 µM) | IC50 (A375): 0.129 µg/mL (≈ 0.437 µM) | IC50 2237: 0.171 µg/mL (≈ 0.579 µM) | IC50 (H1299 cells): 0.008 µg/mL (≈ 0.0271 µM) | pH-stability [2]: sufficiently stable | logP (physchem): 2.51
Structure (SMILES): COC(=O)Nc1nc2ccc(C(=O)c3ccccc3)cc2[nH]1 [MZ, methyl 5-benzoylbenzimidazole-2-carbamate]
Cumulative MZ Released ([1]; 10 min, listed as MZ powder): 0.01 % Dose and 0.012 % Dose and 0.083 % Dose | Cumulative MZ Released ([1]; 20 min, listed as MZ powder): 0.035 % Dose and 0.22 % Dose and 0.18 % Dose | Cumulative MZ Released ([1]; 30 min, listed as MZ powder): 0.14 % Dose and 0.25 % Dose and 0.28 % Dose | Cumulative MZ Released ([1]; 40 min, listed as MZ powder): 0.22 % Dose and 0.23 % Dose and 0.41 % Dose | Cumulative MZ Released ([1]; 50 min, listed as MZ powder): 0.2 % Dose and 0.31 % Dose and 0.35 % Dose
